Source: ChEMBL document CHEMBL1201862, “PubChem BioAssay data set” (2004)
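48-hour exposure; five concentrations; linearly interpolated endpoints. Abbreviation: GI50, concentration required for 50% inhibition of growth.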 The source made the active and inactive calls. Cut-off read from the data, not from the text of the source: active = GI50 up to about 1.1 µM and inactive = higher.

Tests used:
Assay in all cases: DTP human tumour cell line panel, 48 h
DMS-114 = tested on: DMS-114
DMS-273 = tested on: DMS-273
HOP-18 = tested on: HOP-18
LXFL 529 = tested on: LXFL 529
M19-MEL = tested on: M19-MEL
RXF 631 = tested on: RXF 631
SNB-78 = tested on: SNB-78
XF498 = tested on: XF498
BT-549 = tested on: BT-549

Row | Structure (SMILES) | GI50 (DMS-114) | GI50 (DMS-273) | GI50 (HOP-18) | GI50 (LXFL 529) | GI50 (M19-MEL) | GI50 (RXF 631) | GI50 (SNB-78) | GI50 (XF498) | GI50 (BT-549)
1 | CCc1ccccc1NC(=O)c1cccc([N+](=O)[O-])c1O | 17.2 µM (inactive) | 22.1 µM (inactive) | 66.5 µM (inactive) | 36.4 µM (inactive) | 23.6 µM (inactive) | 23.7 µM (inactive) | 37.8 µM (inactive) | 20.4 µM (inactive) | 
2 | O=C1OC(=O)C2C3C=CC(C12)C1C2C=CC2C31 (configuration not stated) |  | > 100 µM (inactive) | > 100 µM (inactive) | > 100 µM (inactive) | > 100 µM (inactive) | > 100 µM (inactive) |  | 42.4 µM (inactive) | 
3 | CCCN(CCCCC(NC(C)=O)C(=O)NCc1ccccc1)C(=O)NC (configuration not stated) | > 100 µM (inactive) | > 100 µM (inactive) |  | > 100 µM (inactive) | > 100 µM (inactive) | > 100 µM (inactive) | > 100 µM (inactive) | > 100 µM (inactive) | 
4 | CN(C)CCCNc1ccc2nnn3c4ccc([N+](=O)[O-])cc4c(=O)c1c23 | 1.89 µM (inactive) | 0.685 µM (active) | 0.729 µM (active) | 1.22 µM (inactive) | 3.65 µM (inactive) | 0.723 µM (active) | 2.08 µM (inactive) | 1.5 µM (inactive) | 5.26 µM (inactive)
5 | CC1(C)OC(=O)C(c2ccsc2)C(=O)O1 | > 100 µM (inactive) | > 100 µM (inactive) | > 100 µM (inactive) | > 100 µM (inactive) | > 100 µM (inactive) | > 100 µM (inactive) | > 100 µM (inactive) | > 100 µM (inactive) | 
6 | Oc1cc(-n2cccn2)c(O)cc1-n1cccn1 | 26.4 µM (inactive) | 41.3 µM (inactive) | 67.9 µM (inactive) | 19.4 µM (inactive) | 23.7 µM (inactive) | > 60.8 µM (inactive) | 34.8 µM (inactive) | 16.3 µM (inactive) | 18.7 µM (inactive)
